From ChEMBL document CHEMBL2057193, “Preparation of 3-substituted-1-isopropyl-1H-pyrazolo[3,4-d]pyrimidin-4-amines as RET kinase inhibitors” (J Med Chem, 2012)
The source made the active and inactive calls. The rule behind the calls is not given here.

Columns and labels:
[1] = molecular target: T1, Proto-oncogene tyrosine-protein kinase receptor Ret (Homo sapiens, UniProt P07949); experiment: Inhibition of RET by commercial radiometric assay
[2] = molecular target: T2, Mitogen-activated protein kinase; ERK1/ERK2 (Homo sapiens) (UniProt P27361+P28482); experiment: Inhibition of ERK1/2 phosphorylation in human HCT116 cells at 50 to 200 nM by Western blotting; type: cell-based; details: HCT-116
T2 sequence (P27361 whole entry, looked up): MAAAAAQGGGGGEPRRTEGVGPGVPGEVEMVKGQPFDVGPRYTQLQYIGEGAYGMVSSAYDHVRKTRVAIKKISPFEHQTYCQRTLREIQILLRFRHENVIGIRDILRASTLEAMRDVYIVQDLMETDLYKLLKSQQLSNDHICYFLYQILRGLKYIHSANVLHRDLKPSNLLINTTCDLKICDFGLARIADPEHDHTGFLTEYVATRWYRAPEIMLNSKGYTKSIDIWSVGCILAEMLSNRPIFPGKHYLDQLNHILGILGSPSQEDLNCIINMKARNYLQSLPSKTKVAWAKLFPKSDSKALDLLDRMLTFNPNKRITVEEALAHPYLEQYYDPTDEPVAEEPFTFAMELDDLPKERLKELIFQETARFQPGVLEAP
T2 sequence (P28482 whole entry, looked up): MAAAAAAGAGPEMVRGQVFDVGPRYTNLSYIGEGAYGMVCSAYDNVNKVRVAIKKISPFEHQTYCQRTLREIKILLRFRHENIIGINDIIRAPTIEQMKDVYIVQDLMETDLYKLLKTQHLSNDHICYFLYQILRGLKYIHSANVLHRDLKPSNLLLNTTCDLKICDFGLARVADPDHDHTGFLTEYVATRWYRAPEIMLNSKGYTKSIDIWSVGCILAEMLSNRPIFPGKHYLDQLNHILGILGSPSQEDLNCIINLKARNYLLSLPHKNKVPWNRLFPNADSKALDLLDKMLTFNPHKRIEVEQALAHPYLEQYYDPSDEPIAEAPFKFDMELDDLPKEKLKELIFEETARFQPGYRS

[3] = molecular target: T2, Mitogen-activated protein kinase; ERK1/ERK2 (Homo sapiens); experiment: Inhibition of nuclear translocation of ERK1/2 in human HCT116 cells at 200 nM by immunofluorescence microscopy; type: cell-based; details: HCT-116
[4] = tested on: HCT-116; experiment: Antiproliferative activity against human HCT116 cells; type: functional, cell-based
[5] = tested on: TPC1; experiment: Antiproliferative activity against human TPC1 cells; type: functional, cell-based
[6] = tested on: HCT-116; experiment: Antiproliferative activity against human HCT116 cells at 1 uM; type: functional, cell-based
[7] = tested on: TPC1; experiment: Antiproliferative activity against human TPC1 cells at 1 uM; type: functional, cell-based
[8] = tested on: HCT-116; experiment: Toxicity in human HCT116 cells at =< 10 uM; type: cell-based
[9] = tested on: TPC1; experiment: Toxicity in human TPC1 cells at =< 10 uM; type: cell-based
[10] = molecular target: T1, Proto-oncogene tyrosine-protein kinase receptor Ret; details: MCF7, 100 nM
Description: Inhibition of RET in serum starved human MCF7 cells assessed as reduction in GDNF-induced ERK1/2 phosphorylation at 100 nM added 30 mins before GDNF stimulation and incubated for further 45 mins by Western blotting

[11] = molecular target: T1, Proto-oncogene tyrosine-protein kinase receptor Ret; details: TPC1, 50 to 200 nM
Description: Inhibition of RET in human TPC1 cells expressing constitutively active RET fusion protein assessed as reduction in ERK1/2 phosphorylation at 50 to 200 nM by Western blotting

[12] = molecular target: T1, Proto-oncogene tyrosine-protein kinase receptor Ret; details: TPC1, 200 nM
Description: Inhibition of RET in human TPC1 cells expressing constitutively active RET fusion protein assessed as reduction in nuclear translocation of ERK1/2 at 200 nM by immunofluorescence microscopy

T1 sequence (P07949 whole entry): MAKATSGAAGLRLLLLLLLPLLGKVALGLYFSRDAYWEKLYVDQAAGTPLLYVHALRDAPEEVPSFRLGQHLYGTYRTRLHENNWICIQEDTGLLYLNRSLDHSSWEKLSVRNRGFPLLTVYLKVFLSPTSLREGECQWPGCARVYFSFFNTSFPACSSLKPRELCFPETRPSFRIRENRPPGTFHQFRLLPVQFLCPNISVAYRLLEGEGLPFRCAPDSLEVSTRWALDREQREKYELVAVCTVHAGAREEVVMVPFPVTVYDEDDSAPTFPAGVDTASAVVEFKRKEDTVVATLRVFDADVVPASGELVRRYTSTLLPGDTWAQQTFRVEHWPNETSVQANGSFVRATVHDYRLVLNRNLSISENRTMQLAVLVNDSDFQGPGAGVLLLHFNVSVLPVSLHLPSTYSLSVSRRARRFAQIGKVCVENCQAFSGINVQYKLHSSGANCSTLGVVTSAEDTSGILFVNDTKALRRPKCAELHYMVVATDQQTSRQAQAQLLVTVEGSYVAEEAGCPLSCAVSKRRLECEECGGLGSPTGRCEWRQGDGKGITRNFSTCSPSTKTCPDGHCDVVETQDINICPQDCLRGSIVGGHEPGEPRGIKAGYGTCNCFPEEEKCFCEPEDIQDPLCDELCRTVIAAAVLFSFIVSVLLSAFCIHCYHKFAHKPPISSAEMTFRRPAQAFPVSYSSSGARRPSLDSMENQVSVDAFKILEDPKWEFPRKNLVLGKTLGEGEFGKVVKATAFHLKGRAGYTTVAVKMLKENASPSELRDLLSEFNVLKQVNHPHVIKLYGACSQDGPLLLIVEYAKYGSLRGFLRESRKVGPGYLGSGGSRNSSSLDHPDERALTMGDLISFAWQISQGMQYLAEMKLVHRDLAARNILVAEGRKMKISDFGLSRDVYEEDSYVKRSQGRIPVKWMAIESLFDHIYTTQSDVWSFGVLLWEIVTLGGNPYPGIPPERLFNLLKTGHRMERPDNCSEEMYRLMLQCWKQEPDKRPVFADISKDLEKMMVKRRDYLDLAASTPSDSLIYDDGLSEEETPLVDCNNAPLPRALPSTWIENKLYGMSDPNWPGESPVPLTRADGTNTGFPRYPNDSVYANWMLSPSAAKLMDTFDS

IC50 [1] [nM] | inhibition [2] | inhibition [3] | EC50 [4] [nM] | inhibition [10] | inhibition [11] | inhibition [12] | SMILES | EC50 [5] [nM] | inhibition [6] | inhibition [7] | Activity [8] | Activity [9]
8 | inactive | inactive | 2400 | Active | Active | Active | CC(C)n1nc(C#Cc2ccccc2)c2c(N)ncnc21 | 3300 | inactive | Active | Non-toxic | Non-toxic
– | – | – | – | – | – | – | CNC(=O)c1cc(Oc2ccc(NC(=O)Nc3ccc(Cl)c(C(F)(F)F)c3)cc2)ccn1 [SORAFENIB] | 2600 | – | – | – | –
